# Results: paper doi:10.1101/2025.08.17.668569v1 (bioRxiv, 2025)
# pEC50: −log10 of the molar value. Ends that are not written are not given here.
# Experiments:
# Solubility in water = type: physicochemical
# [1] = system: 4T1 murine triple-negative breast cancer cells; assay: LDH assay; type: cell-based
# [2] = system: NCI-60 human tumor cell lines (59 cancer cell lines); details: 48 h
# CT26 tumors = assay: Tumor growth, CT26 murine colorectal model; type: in vivo, BALB/c mice; details: intratumoral NF27
# [3] = Half-life in murine serum; type: in vitro ADME; details: mouse
# [4] = system: B16-F10 murine melanoma cells; assay: LDH assay, B16-F10 cells; type: cell-based; details: read-out: EC50 B16-F10, Fig. 2A, 2 h, representative of N = 3
# [5] = system: Panc10.05 human pancreatic cancer cells; assay: LDH assay, Panc10.05 cells; type: cell-based; details: read-out: EC50 Panc10.05, Fig. 2B, 2 h, representative of N = 3
# [6] = system: HepG2 human liver cancer cells; assay: LDH assay, HepG2 cells; type: cell-based; details: read-out: EC50 HepG2, Fig. 2B, 2 h, representative of N = 3
# [7] = system: CT2A murine glioblastoma cells; assay: LDH assay, CT2A cells; type: cell-based; details: read-out: EC50 CT2A, Fig. 2A, 2 h, representative of N = 3
# [8] = system: human melanoma cell line LOX IMVI; assay: NCI-60 screen, LOX IMVI; type: cell-based; details: 48 h, SRB
# SUM149 cells = assay: LDH assay, SUM149 cells; type: cell-based, human; details: read-out: EC50 SUM149, Fig. 2B, 2 h, representative of N = 3
# [9] = system: HT-29 human colorectal cancer cells; assay: LDH assay, HT-29 cells; type: cell-based; details: read-out: EC50 HT-29, Fig. 2B, 2 h, representative of N = 3
# [10] = system: U2OS human osteosarcoma cells; assay: LDH assay, U2OS cells; type: cell-based; details: read-out: EC50 U2OS, Fig. 2B, 2 h, representative of N = 3
# [11] = system: MCA205 murine fibrosarcoma cells; assay: LDH assay, MCA205 cells; type: cell-based; details: read-out: EC50 MCA205, Fig. 2A, 2 h, representative of N = 3
# [12] = system: CT26 murine colon carcinoma cells; assay: LDH assay, CT26 cells; type: cell-based; details: read-out: EC50 CT26, Fig. 2A, 2 h, representative of N = 3
substance,measurement,setting,value
NGRKACLNPASIVKKIIKKILKI [NF11],solubility in water,Solubility in water; lyophilized powder in water,formed a hard gel in water
NGRKAKKNAKKVKKIIKKIKKI-NH2 [NF22],oncolytic activity (LDH release),"[1]; initial screen, 4T1 cells",no detectable oncolytic activity
NGRKAKLNPASIVKKIIKKILKS-NH2 [NF27],GI50,[2],< 10 µM
same,side effects in murine tumor models,CT26 tumors,no observable side effects
same,half-life,[3],29 min
same,pEC50,[4],4.96
same,solubility,Solubility in water; water,≥ 40 mM
same,pEC50,"[1]; read-out: EC50 4T1, Fig. 2A, LDH assay, 2 h, representative of N = 3",4.92
same,pEC50,[5],4.67
same,pEC50,[6],4.56
same,pEC50,[7],4.83
same,GI50,[8],26.3 µM
same,pEC50,SUM149 cells,5.18
same,pEC50,[9],4.62
same,pEC50,[10],4.94
same,pEC50,[11],4.98
same,pEC50,[12],5.36
